Measured values published in US9029553B2, “2-anilino nicotinyl linked 2-amino benzothiazole conjugates and process for the preparation thereof” (Council of Scientific & Industrial Research, priority 2011, dated 2015).
Entries after “also recorded” stand apart in the source; their conditions may differ.

Tests used:
[1] = system: topoisomerase II; assay: DNA topoisomerase-II inhibition assay; format: biochemical; conditions: 1 μM; etoposide 100 μM
Source text: DNA topoisomerases are nuclear enzymes capable of resolving the topology of DNA to allow its replication. So, proper relaxing is very important for successful replication cycle and thus for the cell survival. However, topoisomerases also serve as targets in the anticancer chemotherapy in which cell death serves an important purpose. Moreover, the topoisomerase targeting drugs can either be classified either topo posions, which act by stabilizing enzyme DNA cleavable complexes leading to DNA break or topo catalytic inhibitors, which act by stabilizing enzyme where both DNA strands remain intact and no DNA breaks occur. Importantly, all the topoisomerase inhibitors finally induce apoptosis. In the present study, all the five compounds 4-8 were first subjected to topoisomerase II inhibition assay.

[2] = system: A498; assay: NCI SRB GI50 screen; format: cell-based; conditions: Homo sapiens, Renal, 48 hrs exposure, read-out: Growth Inhibition GI50 A498
Experimental: (§1) 2-Anilino nicotinyl linked 2-amino benzothiazole conjugates of formula 9-12 were tested against fifty nine human cancer cell lines derived from nine cancer types (leukemia, non-small cell lung cancer, colon cancer, CNS cancer, melanoma, ovarian cancer, renal cancer, prostate cancer and breast cancer) as per NCI protocol. For each compound, dose response curves for individual cell lines were measured at a minimum of five concentrations at 10 fold dilutions. A protocol of 48 hrs continuous drug exposure was used, and a sulforhodamine B (SRB) protein assay was used to estimate cell viability or growth.

[3] = system: ACHN; assay: NCI SRB GI50 screen; format: cell-based; conditions: Homo sapiens, Renal, 48 hrs exposure, read-out: Growth Inhibition GI50 ACHN
Experimental: as §1

[4] = system: CCRF-CEM; assay: NCI SRB GI50 screen; format: cell-based; conditions: Homo sapiens, Leukemia, 48 hrs exposure, read-out: Growth Inhibition GI50 CCRF-CEM
Experimental: as §1

[5] = system: DU-145; assay: NCI SRB GI50 screen; format: cell-based; conditions: Homo sapiens, Prostate, 48 hrs exposure, read-out: Growth Inhibition GI50 DU-145
Experimental: as §1

[6] = system: EKVX; assay: NCI SRB GI50 screen; format: cell-based; conditions: Homo sapiens, Non-small lung, 48 hrs exposure, read-out: Growth Inhibition GI50 EKVX
Experimental: as §1

[7] = system: HCC-2998; assay: NCI SRB GI50 screen; format: cell-based; conditions: Homo sapiens, Colon, 48 hrs exposure, read-out: Growth Inhibition GI50 HCC-2998
Experimental: as §1

[8] = system: HCT-116; assay: NCI SRB GI50 screen; format: cell-based; conditions: Homo sapiens, Colon, 48 hrs exposure, read-out: Growth Inhibition GI50 HCT-116
Experimental: as §1

[9] = system: HOP-92; assay: NCI SRB GI50 screen; format: cell-based; conditions: Homo sapiens, Non-small lung, 48 hrs exposure, read-out: Growth Inhibition GI50 HOP-92
Experimental: as §1

[10] = system: IGROV1; assay: NCI SRB GI50 screen; format: cell-based; conditions: Homo sapiens, IGROV-1; Ovarian, 48 hrs exposure; read-out: Growth Inhibition GI50 IGROV1
Experimental: as §1

[11] = system: KM12; assay: NCI SRB GI50 screen; format: cell-based; conditions: Homo sapiens, Colon, 48 hrs exposure, read-out: Growth Inhibition GI50 KM12
Experimental: as §1

[12] = system: LOX IMVI; assay: NCI SRB GI50 screen; format: cell-based; conditions: Homo sapiens, Melanoma, 48 hrs exposure, read-out: Growth Inhibition GI50 LOX IMVI
Experimental: as §1

[13] = system: M14; assay: NCI SRB GI50 screen; format: cell-based; conditions: Homo sapiens, Melanoma, 48 hrs exposure, read-out: Growth Inhibition GI50 M14
Experimental: as §1

[14] = system: MALME-3M; assay: NCI SRB GI50 screen; format: cell-based; conditions: Homo sapiens, read-out: Growth Inhibition GI50 MALME-3M, Melanoma, 48 hrs exposure
Experimental: as §1

[15] = system: MDA-MB-231/ATCC; assay: NCI SRB GI50 screen; format: cell-based; conditions: Homo sapiens, Breast, 48 hrs exposure, read-out: Growth Inhibition GI50 MDA-MB-231/ATCC
Experimental: as §1

[16] = system: NCI-H460; assay: NCI SRB GI50 screen; format: cell-based; conditions: Homo sapiens, Non-small lung, 48 hrs exposure, read-out: Growth Inhibition GI50 NCI-H460
Experimental: as §1

[17] = system: NCI-H522; assay: NCI SRB GI50 screen; format: cell-based; conditions: Homo sapiens, Non-small lung, 48 hrs exposure, read-out: Growth Inhibition GI50 NCI-H522
Experimental: as §1

[18] = system: NCI/ADR-RES; assay: NCI SRB GI50 screen; format: cell-based; conditions: Homo sapiens, Ovarian, 48 hrs exposure, read-out: Growth Inhibition GI50 NCI/ADR-RES
Experimental: as §1

[19] = system: OVCAR-5; assay: NCI SRB GI50 screen; format: cell-based; conditions: Homo sapiens, Ovarian, 48 hrs exposure, read-out: Growth Inhibition GI50 OVCAR-5
Experimental: as §1

[20] = system: SF-268; assay: NCI SRB GI50 screen; format: cell-based; conditions: Homo sapiens, CNS, 48 hrs exposure, read-out: Growth Inhibition GI50 SF-268
Experimental: as §1

[21] = system: SK-MEL-5; assay: NCI SRB GI50 screen; format: cell-based; conditions: Homo sapiens, Melanoma, 48 hrs exposure, read-out: Growth Inhibition GI50 SK-MEL-5
Experimental: as §1

[22] = system: SK-OV-3; assay: NCI SRB GI50 screen; format: cell-based; conditions: Homo sapiens, Ovarian, 48 hrs exposure, read-out: Growth Inhibition GI50 SK-OV-3
Experimental: as §1

[23] = system: SNB-19; assay: NCI SRB GI50 screen; format: cell-based; conditions: Homo sapiens, CNS, 48 hrs exposure, read-out: Growth Inhibition GI50 SNB-19
Experimental: as §1

[24] = system: SNB-75; assay: NCI SRB GI50 screen; format: cell-based; conditions: Homo sapiens, CNS, 48 hrs exposure, read-out: Growth Inhibition GI50 SNB-75
Experimental: as §1

[25] = system: U251; assay: NCI SRB GI50 screen; format: cell-based; conditions: Homo sapiens, U-251; CNS, 48 hrs exposure; read-out: Growth Inhibition GI50 U251
Experimental: as §1

[26] = system: UACC-257; assay: NCI SRB GI50 screen; format: cell-based; conditions: Homo sapiens, Melanoma, 48 hrs exposure, read-out: Growth Inhibition GI50 UACC-257
Experimental: as §1

[27] = system: UACC-62; assay: NCI SRB GI50 screen; format: cell-based; conditions: Homo sapiens, Melanoma, 48 hrs exposure, read-out: Growth Inhibition GI50 UACC-62
Experimental: as §1

[28] = system: UO-31; assay: NCI SRB GI50 screen; format: cell-based; conditions: Homo sapiens, Renal, 48 hrs exposure, read-out: Growth Inhibition GI50 UO-31
Experimental: as §1

SMILES | GI50 [2] [µM] | GI50 [3] [µM] | GI50 [4] [µM] | GI50 [5] [µM] | GI50 [6] [µM] | GI50 [7] [µM] | GI50 [8] [µM] | GI50 [9] [µM] | GI50 [10] [µM] | GI50 [11] [µM] | GI50 [12] [µM] | GI50 [13] [µM] | GI50 [14] [µM] | GI50 [15] [µM] | GI50 [16] [µM] | GI50 [17] [µM] | GI50 [18] [µM] | GI50 [19] [µM] | GI50 [20] [µM] | GI50 [21] [µM] | further results
O=C(Nc1nc2ccc([N+](=O)[O-])cc2s1)c1cccnc1Nc1cc(F)c(F)c(F)c1 [Compound 8, N3-(6-nitro-1,3-benzothiazol-2-yl)-2-[(3,4,5-trifluorophenyl)amino]-3-pyridine carboxamide] |  |  |  |  |  |  |  |  |  |  |  |  |  |  |  |  |  |  |  |  | topoisomerase-II inhibition (DNA relaxation) [1]: more potent effect relative to etoposide; also recorded: maximum inhibition
O=C(Nc1nc2ccc(F)cc2s1)c1cccnc1Nc1ccc(Cl)cc1Cl [Compound 10, N3-(6-fluoro-1,3-benzothiazol-2-yl)-2-(2,4-dichloroanilino)nicotinamide] | 2.83 | 3.72 | 1.85 | 3.53 | 2.07 | 3.54 | 2.19 | 1.48 | 1.82 | 2.9 | 4.19 | 3.37 | 2.38 | 3.41 | 2.56 | 1.48 | 2.51 | 4.46 | 3.88 | 1.71 | GI50 [22]: 2.5 µM; GI50 [23]: 3.66 µM; GI50 [24]: 2.55 µM; GI50 [25]: 2.9 µM; GI50 [26]: 0.17 µM; GI50 [27]: 2.12 µM; GI50 [28]: 1.1 µM; melting point: 208 to 210 °C
COc1ccc2nc(NC(=O)c3cccnc3Nc3cc(OC)c(OC)c(OC)c3)sc2c1 [Compound 12, N-3-(6-methoxy-1,3-benzothiazol-2-yl)-2-(3,4,5-trimethoxyanilino) nicotinamide] | 2.19 | 6.47 | 20.1 | 14.6 | 11.5 | 17 | 4.5 | 2.24 | 13.2 | 4.51 | 15.7 | 10.5 | 10.1 | 5.62 | 7.42 | 2.6 | 8.97 | 14.5 | 4.43 | 11.3 | GI50 [22]: 3.72 µM; GI50 [23]: 15 µM; GI50 [24]: 2.89 µM; GI50 [25]: 7.1 µM; GI50 [26]: 8.45 µM; GI50 [27]: 8.45 µM; GI50 [28]: 9.3 µM; melting point: 121 to 125 °C (dec.)
COc1cc(Nc2ncccc2C(=O)Nc2nc3ccc(F)cc3s2)cc(OC)c1OC [Compound 11, N3-(6-fluoro-1,3-benzothiazol-2-yl)-2-(3,4,5-trimethoxyanilino)nicotinamide] | 3.45 | 4.82 | 3.26 | 5.5 | 2.7 | 2.94 | 3.49 | 1.48 | 1.77 | 3.79 | 3.87 | 3.08 | 3.27 | 4.61 | 3.3 | 1.55 | 2.92 | 25.6 | 6.56 | 1.63 | GI50 [22]: 7.4 µM; GI50 [23]: 3.49 µM; GI50 [24]: 4.48 µM; GI50 [25]: 3.01 µM; GI50 [27]: 1.71 µM; GI50 [28]: 3.37 µM; melting point: 214 to 216 °C
O=C(Nc1nc2ccc(F)cc2s1)c1cccnc1Nc1ccc(Cl)cc1 [Compound 9, N3-(6-fluoro-1,3-benzothiazol-2-yl)-2-(4-chloroanilino)nicotinamide] | 1.92 | 3.08 | 1.06 | 3.67 | 1.94 | 2.75 | 1.67 | 1.69 | 2 | 2.61 | 2.62 | 2.64 | 1.94 | 1.85 | 1.97 | 1.02 | 2.09 | 2.63 | 3.93 | 1.11 | GI50 [22]: 2.23 µM; GI50 [23]: 3.65 µM; GI50 [24]: 2.95 µM; GI50 [25]: 3.03 µM; GI50 [26]: 0.164 µM; GI50 [27]: 1.94 µM; GI50 [28]: 1.94 µM; melting point: 254 to 257 °C
